Experiment [1] deals with HEK293. As to the kind of experiment: cytotoxicity in HEK293T NF-kB-Luc cells, SAR follow-up, cytotoxicity control for NF-kB activator project, cell-based, resazurin fluorescence (AID 493251). It is filed as functional. Conditions: Homo sapiens.
For another experiment, the target named is Trypsin (Sus scrofa, UniProt P00761). The experiment can be described thus: porcine trypsin inhibitors, dose response, selectivity assay for Rce1 protease inhibitor project, biochemical, quenched peptide fluorescence, cherry-pick (AID 488789).
The target of experiment [2] is T1, CAAX prenyl protease 2 (Saccharomyces cerevisiae S288c, UniProt Q03530).
T1 sequence (Q03530 whole entry): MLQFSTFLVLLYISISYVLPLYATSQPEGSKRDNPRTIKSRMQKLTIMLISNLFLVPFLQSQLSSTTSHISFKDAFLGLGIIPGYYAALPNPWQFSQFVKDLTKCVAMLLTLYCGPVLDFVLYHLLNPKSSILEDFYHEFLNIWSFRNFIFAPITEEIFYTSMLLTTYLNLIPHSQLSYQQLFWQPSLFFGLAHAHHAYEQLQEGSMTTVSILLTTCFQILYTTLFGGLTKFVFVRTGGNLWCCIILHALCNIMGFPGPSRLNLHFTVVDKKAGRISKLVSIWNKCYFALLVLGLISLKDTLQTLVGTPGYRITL
It is filed as biochemical.

Experiment [3] addresses CAAX prenyl protease 2 (Homo sapiens, UniProt Q9Y256). As to the kind of experiment: human Rce1 protease inhibitors, dose response, biochemical, yeast membranes, quenched-peptide fluorescence, cherry-pick (AID 588849).
Experiment [4] has as its target T2, Polyadenylate-binding protein 1 (Homo sapiens, UniProt P11940). The experiment can be described thus: PABP1 MLLE–PAM2 interaction inhibitors, dose response, miRNA deadenylation inhibitor project, biochemical, fluorescence polarization, Cy5-PAM2 peptide, secondary (AID 602260). As to conditions: read-out: IC50_Mean. It is filed as functional. In general terms: Polarisation of emitted light reports the rotation of a fluorescent probe.

The target in experiment [5] is T2, Polyadenylate-binding protein 1. As to the kind of experiment: PABP1 MLLE–PAM2 binding inhibitor potency, dose response, biochemical, fluorescence polarization, FITC-PAM2 peptide (AID 602259). It is filed as functional. As to conditions: read-out: IC50_Mean.
Experiment [6] deals with T3, G-protein coupled receptor 55 (Homo sapiens, UniProt Q9Y2T6). As to the kind of experiment: GPR55 antagonists, SAR follow-up, counter-screen for GPR35 antagonist project, imaging, image-based (AID 2397). It is filed as functional. For orientation: Counterscreens check selectivity or assay interference.
The target in experiment [7] is Beta-2 adrenergic receptor (Homo sapiens, UniProt P07550). As to the kind of experiment: beta2AR agonists driving receptor internalization, dose response, cell-based, FAP fluorogen, flow cytometry, cherry pick 1 (AID 588763). It is filed as functional. In general terms: Flow cytometry measures light scatter and fluorescence of single cells or particles in a stream.

In experiment [8] the test system is BJ. The experiment can be described thus: cytotoxicity toward BJ-TERT fibroblasts, dose response, cell-based, RAS-independent, luminescence (AID 1933). Conditions: Homo sapiens. It is filed as functional.
Experiment [9] concerns BJ. The experiment can be described thus: cells. It is filed as functional, cell-based. Conditions: Homo sapiens.
Experiment [10] is described as follows: growth suppression of PTEN-null colon cells, dose response, cell-based, HCT116 PTEN knockout (AID 1047).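 Also: HCT116 colon tumor cells with PTEN knocked out; cells exposed to compound for 60 hours before readout; potency for loss of cell viability measured by luminescence.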 It is filed as functional.
The nature of experiment [11]: growth suppression of beta-catenin-knockout colon cells, dose response, cell-based, HCT116, human colon tumor (AID 1045).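 Also: HCT116 colon tumor cells with beta catenin knocked out; cells exposed to compound for 60 hours.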 It is filed as functional.
The nature of experiment [12]: cytotoxicity toward DRD oncogenic fibroblasts, dose response, cell-based, non-viral oncogenic, luminescence (AID 1934). It is filed as functional. As to conditions: Homo sapiens.
Experiment [13] deals with T3, G-protein coupled receptor 55. As to the kind of experiment: GPR55 agonists via beta-arrestin recruitment, primary screen, imaging, U2OS cells, beta-arrestin-GFP redistribution (AID 1961). It is filed as functional.
The target in experiment [14] is C-C chemokine receptor type 6 (Homo sapiens, UniProt P51684). As to the kind of experiment: CCR6 receptor antagonists, dose response, cell-based, luminescent beta-arrestin readout (AID 504728). It is filed as functional.
The target of a further experiment is Beta-galactosidase (Escherichia coli, UniProt Q8VNN2). The experiment can be described thus: beta-galactosidase enzyme inhibitors and activators, dose response, artefact control for CCR6 antagonist project, biochemical, E. coli enzyme, set 3 (AID 504712). It is filed as functional.
Experiment [15] has as its system BJ. As to the kind of experiment: cytotoxicity toward Ras-transformed BJeLR fibroblasts, dose response, cell-based, alamar blue fluorescence, cherrypicked samples (AID 2631).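 Also: confirmatory dose-response assay in RAS-dependent BJ fibroblasts engineered with TERT, LT and ST, with cytotoxicity read by fluorescence.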 It is filed as functional. As to conditions: Homo sapiens.
The next experiment deals with INS1. The experiment can be described thus: beta cell apoptosis inhibitors, cytokine rescue, dose response, luminescence, retest (AID 449756).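 Also: cell death triggered by IL-1 beta plus TNF-alpha plus IFN-gamma mixture; protective hits raise ATP signal compared with cytokine alone wells.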 It is filed as functional, cell-based. Conditions: Rattus norvegicus.
Experiment [16] can be described thus: Fluorescence-based cell-based high throughput dose response assay for inhibitors of the interaction of nucleotide-binding oligomerization domain containing 2 (NOD2) and the receptor-interacting serine-threonine kinase 2 (RIPK2). It is filed as functional. As to conditions: Homo sapiens.
The next experiment deals with Beta Lactamase (Pseudomonas aeruginosa, UniProt Q932Y6). The experiment can be described thus: beta-lactamase reporter inhibitor potency, dose response, artefact control for NOD2-RIPK2 interaction inhibitor project, BLA reporter cells, FRET fluorescence (AID 651552). It is filed as functional, cell-based.
A short description of experiment [17]: HeLa cell cytotoxicity, dose response, cytotoxicity control for MgcRacGAP inhibitor project (AID 624300). It is filed as functional.
The target of experiment [18] is T4, Rac GTPase-activating protein 1 (Homo sapiens, UniProt Q9H0H5).
T4 sequence (Q9H0H5 whole entry): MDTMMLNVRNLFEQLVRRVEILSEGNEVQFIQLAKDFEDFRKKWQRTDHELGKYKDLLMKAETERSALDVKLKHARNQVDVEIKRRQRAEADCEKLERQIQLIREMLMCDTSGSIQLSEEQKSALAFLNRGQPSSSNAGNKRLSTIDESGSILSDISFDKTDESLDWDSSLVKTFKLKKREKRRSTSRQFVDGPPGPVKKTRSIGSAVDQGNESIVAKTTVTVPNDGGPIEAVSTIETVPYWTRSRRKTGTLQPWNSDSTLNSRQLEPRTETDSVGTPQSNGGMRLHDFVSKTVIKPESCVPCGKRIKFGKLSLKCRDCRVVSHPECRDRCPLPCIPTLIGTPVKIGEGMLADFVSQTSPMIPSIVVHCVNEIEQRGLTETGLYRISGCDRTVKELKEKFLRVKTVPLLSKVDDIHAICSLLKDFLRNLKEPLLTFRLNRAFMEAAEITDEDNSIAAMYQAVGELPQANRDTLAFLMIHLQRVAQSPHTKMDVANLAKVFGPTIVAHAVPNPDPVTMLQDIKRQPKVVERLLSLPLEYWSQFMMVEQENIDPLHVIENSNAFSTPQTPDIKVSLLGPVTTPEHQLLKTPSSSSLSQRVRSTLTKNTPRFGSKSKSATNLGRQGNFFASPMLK
As to the kind of experiment: MgcRacGAP GTPase-activating activity inhibitors, confirmation, biochemical, ADP Hunter fluorescence, primary and confirmatory (AID 624330). It is filed as functional.

For experiment [19], the target named is T5, Mannose-6-phosphate isomerase (Homo sapiens, UniProt P34949).
T5 sequence (P34949 whole entry): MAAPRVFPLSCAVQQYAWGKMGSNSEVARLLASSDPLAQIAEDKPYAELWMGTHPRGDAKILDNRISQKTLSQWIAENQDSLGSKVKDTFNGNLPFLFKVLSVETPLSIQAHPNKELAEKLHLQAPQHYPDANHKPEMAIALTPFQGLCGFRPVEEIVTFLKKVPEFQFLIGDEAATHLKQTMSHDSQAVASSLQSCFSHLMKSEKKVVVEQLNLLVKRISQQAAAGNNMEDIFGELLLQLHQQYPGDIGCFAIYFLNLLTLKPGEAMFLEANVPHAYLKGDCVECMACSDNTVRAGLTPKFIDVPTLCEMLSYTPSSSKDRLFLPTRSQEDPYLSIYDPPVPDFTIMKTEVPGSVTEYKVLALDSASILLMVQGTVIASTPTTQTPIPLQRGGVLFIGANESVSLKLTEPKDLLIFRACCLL
The experiment can be described thus: PMI enzyme inhibitors, confirmation, biochemical, fluorescence intensity (AID 1535).

A further experiment concerns the target Tumor necrosis factor (Homo sapiens, UniProt P01375). The experiment can be described thus: TNFa-triggered NF-kB activation inhibitors, SAR follow-up, cell-based, revised (AID 2337). It is filed as functional.
The target in experiment [20] is T6, Nucleotide-binding oligomerization domain-containing protein 1 (Homo sapiens, UniProt Q9Y239).
T6 sequence (Q9Y239 whole entry): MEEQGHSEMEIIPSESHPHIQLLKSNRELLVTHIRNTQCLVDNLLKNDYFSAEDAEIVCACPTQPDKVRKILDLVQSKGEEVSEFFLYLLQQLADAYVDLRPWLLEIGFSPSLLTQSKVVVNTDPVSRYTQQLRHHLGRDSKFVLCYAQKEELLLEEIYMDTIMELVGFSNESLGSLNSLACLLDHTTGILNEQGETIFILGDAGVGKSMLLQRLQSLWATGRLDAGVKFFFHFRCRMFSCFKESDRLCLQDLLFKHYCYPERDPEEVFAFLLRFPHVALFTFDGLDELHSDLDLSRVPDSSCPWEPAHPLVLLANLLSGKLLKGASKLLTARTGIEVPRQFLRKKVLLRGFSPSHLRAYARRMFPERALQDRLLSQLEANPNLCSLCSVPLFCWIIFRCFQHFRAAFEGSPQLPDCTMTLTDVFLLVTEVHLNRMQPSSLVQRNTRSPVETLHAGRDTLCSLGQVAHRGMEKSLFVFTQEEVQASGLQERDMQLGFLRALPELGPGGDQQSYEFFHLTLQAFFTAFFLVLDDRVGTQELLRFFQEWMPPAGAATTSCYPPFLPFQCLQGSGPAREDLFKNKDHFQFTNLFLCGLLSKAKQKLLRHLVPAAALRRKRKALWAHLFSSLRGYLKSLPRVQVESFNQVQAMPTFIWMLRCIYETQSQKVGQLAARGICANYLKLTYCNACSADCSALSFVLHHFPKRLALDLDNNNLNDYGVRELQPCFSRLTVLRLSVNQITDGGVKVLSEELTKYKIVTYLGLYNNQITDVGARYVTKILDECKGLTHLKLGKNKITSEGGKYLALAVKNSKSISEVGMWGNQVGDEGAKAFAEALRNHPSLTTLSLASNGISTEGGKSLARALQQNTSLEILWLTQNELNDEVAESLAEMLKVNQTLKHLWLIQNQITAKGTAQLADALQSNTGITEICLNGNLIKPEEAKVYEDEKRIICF
As to the kind of experiment: NOD1 signaling inhibitors, SAR follow-up, revised (AID 2333). It is filed as functional.

Experiment [21] has as its system HEK293. The experiment can be described thus: cells. Conditions: Homo sapiens.

By AC50 is commonly meant the concentration giving half of the maximal activity seen. As a reminder, the EC50 is the concentration at which the effect is half-maximal. Usually CC50 stands for the concentration that lowers cell viability or growth by half.

Activity calls are given as the source filed them. Bounds are passed on as bounds.

T3 sequence (Q9Y2T6 whole entry): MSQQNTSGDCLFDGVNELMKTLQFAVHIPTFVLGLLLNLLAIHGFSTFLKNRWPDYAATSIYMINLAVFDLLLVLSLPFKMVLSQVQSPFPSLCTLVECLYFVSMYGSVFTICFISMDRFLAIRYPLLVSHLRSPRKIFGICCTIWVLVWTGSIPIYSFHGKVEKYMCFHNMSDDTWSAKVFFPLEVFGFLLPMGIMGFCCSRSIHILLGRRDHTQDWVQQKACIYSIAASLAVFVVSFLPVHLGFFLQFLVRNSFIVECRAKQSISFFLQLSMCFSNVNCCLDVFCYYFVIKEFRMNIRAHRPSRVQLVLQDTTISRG
T2 sequence (P11940 whole entry): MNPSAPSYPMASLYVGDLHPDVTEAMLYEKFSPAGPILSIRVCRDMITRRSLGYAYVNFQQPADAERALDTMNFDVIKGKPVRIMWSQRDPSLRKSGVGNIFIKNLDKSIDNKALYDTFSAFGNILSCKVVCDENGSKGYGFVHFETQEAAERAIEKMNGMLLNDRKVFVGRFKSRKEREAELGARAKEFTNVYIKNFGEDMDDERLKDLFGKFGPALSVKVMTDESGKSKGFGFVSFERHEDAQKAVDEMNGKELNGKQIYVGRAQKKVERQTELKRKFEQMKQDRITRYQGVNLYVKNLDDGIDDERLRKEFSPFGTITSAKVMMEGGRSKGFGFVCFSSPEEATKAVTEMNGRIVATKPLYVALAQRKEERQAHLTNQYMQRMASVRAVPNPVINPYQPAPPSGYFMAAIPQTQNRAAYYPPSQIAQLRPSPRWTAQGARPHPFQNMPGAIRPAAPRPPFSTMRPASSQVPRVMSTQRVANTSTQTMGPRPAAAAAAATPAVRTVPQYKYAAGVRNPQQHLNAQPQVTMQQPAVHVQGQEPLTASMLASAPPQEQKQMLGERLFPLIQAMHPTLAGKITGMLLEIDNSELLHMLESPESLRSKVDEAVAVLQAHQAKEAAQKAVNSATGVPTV
Sequence of Tumor necrosis factor (P01375 whole entry, the tested form may be a part): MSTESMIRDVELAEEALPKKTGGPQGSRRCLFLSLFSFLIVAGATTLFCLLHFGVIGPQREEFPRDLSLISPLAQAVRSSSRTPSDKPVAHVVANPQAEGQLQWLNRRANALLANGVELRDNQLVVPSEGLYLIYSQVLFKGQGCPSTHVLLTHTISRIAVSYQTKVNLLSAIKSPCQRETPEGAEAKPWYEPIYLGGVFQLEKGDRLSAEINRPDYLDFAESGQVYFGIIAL
Sequence of C-C chemokine receptor type 6 (P51684 whole entry): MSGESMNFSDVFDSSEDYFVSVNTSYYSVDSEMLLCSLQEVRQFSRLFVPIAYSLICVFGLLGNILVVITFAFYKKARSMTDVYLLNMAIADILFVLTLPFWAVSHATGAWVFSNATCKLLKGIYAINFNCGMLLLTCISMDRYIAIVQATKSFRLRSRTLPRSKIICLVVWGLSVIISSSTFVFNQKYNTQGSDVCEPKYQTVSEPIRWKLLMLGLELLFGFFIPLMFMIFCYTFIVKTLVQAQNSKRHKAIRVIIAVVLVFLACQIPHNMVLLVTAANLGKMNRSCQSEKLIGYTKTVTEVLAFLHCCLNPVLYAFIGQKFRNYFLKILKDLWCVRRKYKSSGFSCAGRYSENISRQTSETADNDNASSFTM
Sequence of Beta-galactosidase (Q8VNN2 whole entry): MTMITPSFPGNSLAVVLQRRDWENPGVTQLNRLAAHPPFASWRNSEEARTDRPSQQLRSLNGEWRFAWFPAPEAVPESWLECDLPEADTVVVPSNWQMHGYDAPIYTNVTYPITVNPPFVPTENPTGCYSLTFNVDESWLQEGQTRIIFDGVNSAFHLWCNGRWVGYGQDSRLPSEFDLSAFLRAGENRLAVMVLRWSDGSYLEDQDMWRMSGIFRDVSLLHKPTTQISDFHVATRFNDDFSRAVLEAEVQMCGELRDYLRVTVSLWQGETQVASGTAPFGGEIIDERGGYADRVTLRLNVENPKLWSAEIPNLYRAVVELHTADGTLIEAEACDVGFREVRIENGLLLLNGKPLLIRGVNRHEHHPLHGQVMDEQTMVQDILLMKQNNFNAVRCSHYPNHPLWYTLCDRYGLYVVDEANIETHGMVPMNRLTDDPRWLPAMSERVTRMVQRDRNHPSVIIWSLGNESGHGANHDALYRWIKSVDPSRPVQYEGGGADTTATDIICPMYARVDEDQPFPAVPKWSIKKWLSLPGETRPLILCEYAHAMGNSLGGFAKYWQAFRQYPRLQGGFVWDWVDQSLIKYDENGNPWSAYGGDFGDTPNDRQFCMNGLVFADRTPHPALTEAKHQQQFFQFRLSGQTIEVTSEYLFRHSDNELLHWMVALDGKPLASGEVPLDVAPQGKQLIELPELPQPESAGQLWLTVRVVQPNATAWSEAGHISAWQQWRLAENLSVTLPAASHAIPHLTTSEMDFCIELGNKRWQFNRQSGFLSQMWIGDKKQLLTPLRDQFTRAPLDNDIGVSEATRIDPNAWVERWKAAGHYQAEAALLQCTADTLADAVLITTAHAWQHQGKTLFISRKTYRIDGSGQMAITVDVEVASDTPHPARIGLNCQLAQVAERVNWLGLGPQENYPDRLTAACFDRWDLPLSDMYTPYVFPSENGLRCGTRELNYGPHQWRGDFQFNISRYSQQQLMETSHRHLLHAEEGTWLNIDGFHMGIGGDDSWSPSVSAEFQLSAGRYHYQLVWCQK
Sequence of Trypsin (P00761 whole entry): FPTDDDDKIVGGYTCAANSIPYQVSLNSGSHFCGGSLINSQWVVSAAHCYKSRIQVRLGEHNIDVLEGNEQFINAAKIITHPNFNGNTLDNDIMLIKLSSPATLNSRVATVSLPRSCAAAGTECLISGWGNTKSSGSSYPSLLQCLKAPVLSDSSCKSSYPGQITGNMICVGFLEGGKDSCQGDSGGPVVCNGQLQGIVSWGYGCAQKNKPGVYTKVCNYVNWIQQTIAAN
Sequence of Beta Lactamase (Q932Y6 whole entry): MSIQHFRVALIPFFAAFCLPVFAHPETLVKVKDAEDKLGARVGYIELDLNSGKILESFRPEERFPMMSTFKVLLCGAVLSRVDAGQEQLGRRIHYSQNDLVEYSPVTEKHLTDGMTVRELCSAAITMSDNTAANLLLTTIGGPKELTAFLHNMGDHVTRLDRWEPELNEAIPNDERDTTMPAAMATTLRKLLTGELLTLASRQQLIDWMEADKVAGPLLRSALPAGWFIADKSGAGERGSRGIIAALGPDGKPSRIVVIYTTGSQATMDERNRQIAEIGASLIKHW
Sequence of CAAX prenyl protease 2 (Homo sapiens, UniProt Q9Y256) (Q9Y256 whole entry): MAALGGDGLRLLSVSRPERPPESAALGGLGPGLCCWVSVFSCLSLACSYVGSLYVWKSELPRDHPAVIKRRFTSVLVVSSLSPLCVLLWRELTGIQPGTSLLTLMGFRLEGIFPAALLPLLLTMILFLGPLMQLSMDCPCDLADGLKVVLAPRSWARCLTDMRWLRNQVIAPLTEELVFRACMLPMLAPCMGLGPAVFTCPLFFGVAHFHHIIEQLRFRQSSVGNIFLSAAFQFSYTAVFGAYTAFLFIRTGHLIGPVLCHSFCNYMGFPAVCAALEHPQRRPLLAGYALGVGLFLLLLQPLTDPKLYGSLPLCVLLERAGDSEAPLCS
Sequence of Beta-2 adrenergic receptor (P07550 whole entry): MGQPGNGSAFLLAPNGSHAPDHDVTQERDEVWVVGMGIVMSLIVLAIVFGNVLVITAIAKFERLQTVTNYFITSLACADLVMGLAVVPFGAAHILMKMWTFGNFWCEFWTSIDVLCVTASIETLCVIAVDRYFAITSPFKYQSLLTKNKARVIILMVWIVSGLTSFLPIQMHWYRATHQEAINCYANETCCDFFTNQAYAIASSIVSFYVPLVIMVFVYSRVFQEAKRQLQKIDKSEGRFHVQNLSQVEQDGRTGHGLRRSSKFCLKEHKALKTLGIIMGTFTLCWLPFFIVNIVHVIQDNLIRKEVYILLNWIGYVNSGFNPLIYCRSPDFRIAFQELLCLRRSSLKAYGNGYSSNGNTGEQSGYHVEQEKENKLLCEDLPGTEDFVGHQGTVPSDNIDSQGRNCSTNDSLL

`O=C(O)CCc1nc(-c2ccccc2)no1`: the IC50 in the experiment on HEK293 [1] is > 80 µM (inactive).

Turning to `COC(=O)Nc1nnc(-c2ccncc2)s1`, the half-maximal activity concentration (AC50) was 12.5 µM (active) at Trypsin, 9.58 µM (active) at CAAX prenyl protease 2 [2] and 5.84 µM (active) on CAAX prenyl protease 2 [3]. Further, the IC50 in experiment [4] and in experiment [5] was > 66 µM (inactive) each time.

Consider `COC(=O)CSc1nc2ccc(NC(=O)c3ccccc3C(=O)N3CCOCC3)cc2s1`, for which the IC50 in experiment [6] is > 32 µM (inactive).

Turning to `CCCCN(CCCC)c1nc2ccccc2nc1NS(=O)(=O)c1ccc(NC(C)=O)cc1`, the concentration for a half-maximal effect (EC50) in experiment [7] was 0.0203 µM (active).

Take `COC(=O)c1ccc2c(c1)C(C)(C)C(/C=C/c1ccc(OC)c(OC)c1OC)=[N+]2C`: the EC50 in the experiment with BJ [8] is 3.9 µM (inconclusive); in the experiment on BJ [9] it was 14.4 µM (active); in experiment [10], 5.04 µM (active); in experiment [11] it was 3.84 µM (active); in experiment [12], 3.71 µM (active); in [13], 1.51 µM (active). Also, the EC50 in the experiment with BJ [15] was 1.3 µM (inconclusive). The IC50 in [14] is 21.4 µM (inactive); on Beta-galactosidase, > 66.6 µM (inactive); in [16], 1.93 µM (active); at Beta Lactamase, 39.1 µM (inactive); in experiment [18] it was 25.7 µM (active). Moreover, in the experiment with INS1, the AC50 was 2.09 µM (active). Also, the CC50 in [17] was 60.4 µM (active).

On to `Clc1nss/c1=N\c1nc2ccccc2[nH]1`, for which the IC50 in experiment [19] was 98.1 µM (active).

In the case of `CCc1cc(C(=O)NC2CCCc3c2cnn3-c2ccc(F)cc2F)no1` (stereo not given), the IC50 is > 20 µM (inactive) on Tumor necrosis factor, 10.4 µM (active) in experiment [20] and > 20 µM (inactive) in the experiment with HEK293 [21].

For `CCOC(=O)c1ccc(NC(=O)c2ccc(CCN3CCc4ccccc4C3)cc2)cc1`, the results for the IC50 (on Tumor necrosis factor; in [20]; with HEK293 [21]) were 10.8 µM (active), 10.6 µM (active) and > 20 µM (inactive), respectively.

`c1ccc(Cn2ncc3c(N4CCN(c5ccccc5)CC4)ncnc32)cc1`: the IC50 in experiment [6] was 29.1 µM (inactive).
